# Test results as given in patent US20040253665A1, “Novel peptide-producing enzyme, microbe producing the enzyme and method for dipeptide synthesis using them” (AJINOMOTO CO., INC., priority 2002, published 2004).
# Like-named read-outs stand apart in the source and are kept apart here. Non-standard residues stand in square brackets, D forms with d. Residues, ends and D or L forms follow the SMILES beside them. *: point of attachment. 2Nal = N[C@@H](Cc1ccc2ccccc2c1)C(=O)O; Tle = CC(C)(C)[C@H](N)C(=O)O; tBu = CC(C)(C)*
# Columns and labels:
# Assay type in all cases: biochemical
# [1] = test system: peptide-producing enzyme (Mono S fraction) from Empedobacter brevis strain FERM BP-8113; experiment: Enzyme substrate specificity (1)-(10), (13), (14); parameters: key: +: those peptides for which production was confirmed but which were unable to be quantified due to the absence of a standard; a trace amount
# Description: (§1) Ester specificity was examined in the case of using L-amino acid ester for the carboxy component. […] The amounts of L-Ala-L-Gln produced in this reaction are shown in Table 4 (HCl represents hydrochloride in Table 4). Peptide production was examined in the case of using L-alanine methyl ester for the carboxy component and using various L-amino acids for the amine component. […] (The “+” mark indicates those peptides for which production was confirmed but which were unable to be quantified due to the absence of a standard, while “tr” indicates a trace amount.) Peptide production was examined in the case of using various types of L-amino acid methyl esters for the carboxy component and using L-glutamine for the amine component. […] Peptide production was examined in the case of using various L-amino acid methyl esters for the carboxy component and various L-amino acids for the amine component. […] (The “tr” indicates a trace amount.) Furthermore, Tween-80 was added to the reaction system to a final concentration of 0.1% in the case of using L-Trp-OMe. (The “+” mark indicates those peptides for which production was confirmed but which were unable to be quantified due to the absence of a standard.) […] (The “tr” indicates a trace amount.) Peptide production was examined using various L-amino acid amides for the carboxy component, and various L-amino acids for the amine component. […] Peptide production was examined in the case of using various L-alanine methyl esters for the carboxy component and C-protected L-amino acids for the amine component. […] Peptide production was examined in the case of using various amino acid methyl esters for the carboxy component and methylamine for the amine component. […] Peptide production was examined in the case of using β-amino acid ester for the carboxy component or β-amino acid for the amine component. […] (The “tr” indicates a trace amount.) Oligopeptide production was examined in the case of using L-amino acid ester for the carboxy component and peptide for the amine component. […] Substrate specificity was additionally assessed using the same enzyme fraction as that used in Example 5. […] (A “+” mark indicates those for which production was confirmed but which were unable to be quantified due to the absence of a standard, while “tr” indicates a trace amount). Substrate specificity with respect to oligopeptide production was assessed using the same enzyme fraction as Example 26. […] (A “+” mark indicates those for which production was confirmed but which were unable to be quantified due to the absence of a standard, while “tr” indicates a trace amount). It should be noted that hydrochlorides were used for all of the carboxy components.
# [2] = test system: enzyme (SP-Sepharose HP fraction) derived from Sphingobacterium sp. strain FERM BP-8124; parameters: key to Produced peptide (mM): +: those peptides for which production was confirmed but which were unable to be quantified due to the absence of a standard; a trace amount; settings: 0.33 units enzyme, pH 9.0, 25° C., 1.5 hours
# Description: Substrate specificity was examined for enzyme derived from Sphingobacterium sp. strain FERM BP-8124 (Depositary institution: National Institute for Advanced Industrial Science and Technology, International Patent Organism Depositary, Address of depositary institution: Central. 6, 1-1-1 Higashi, Tsukuba City, Ibaraki Prefecture, Japan, International deposit date: Jul. 22, 2002). 100 μl of 100 mM borate buffer (pH 9.0) containing the various carboxy components at a final concentration of 100 mM and the various amine components at a final concentration of 150 mM shown in Tables 15-1 to 15-4, the SP-Sepharose HP fraction enzyme purified in Example 22 (addition of 0.33 units in the reaction liquid) and 10 mM EDTA were allowed to react at 25° C. for 1.5 hours. […] In addition, hydrochlorides were used for all carboxy components.
# Substrate specificity with respect to oligopeptide production was examined for enzyme derived from Sphingobacterium sp. strain FERM BP-8124 (Depositary institution: National Institute for Advanced Industrial Science and Technology,.International Patent Organism Depositary, Address of depositary institution: Chuo Dai-6, 1-1 Higashi 1-Chome, Tsukuba-shi, Ibaraki-ken, Japan, International deposit date: Jul. 22, 2002). A 100 μl aliquot of 100 mM borate buffer (pH 9.0) containing the various carboxy components at a final concentration of 100 mM and the various amine components at a final concentration of 150 mM shown in Table 16, the SP-Sepharose HP fraction enzyme purified in Example 22 (addition of 0.33 units in the reaction liquid) and 10 mM EDTA were allowed to react for 1.5 hours at 25° C. Furthermore, hydrochloride salts were used for all carboxy components.
# [3] = test system: peptide-producing enzyme (Mono S fraction) from Empedobacter brevis strain FERM BP-8113; experiment: Enzyme substrate specificity (1)-(10), (13), (14); settings: pH 9.0, 25° C., 3 hours
# Description: as §1
# [4] = carboxy component 100 mM, amine component 150 mM, 0.1 unit enzyme, 25° C., reaction time 3 hr
# [5] = L-amino acid methyl ester hydrochloride 100 mM, 150 mM L-glutamine, pH 9.0, 25° C., 3 hours
# [6] = Table 15-2, carboxy component 100 mM, L-Gln 150 mM
# [7] = L-amino acid methyl ester hydrochloride 100 mM, 150 mM L-glutamine
# [8] = Table 15-1, carboxy component 100 mM, amine component 150 mM
# [9] = Table 15-4, amides or methylamine as components, 100 mM / 150 mM
# [10] = amino acid methyl ester 100 mM, methylamine 150 mM
# [11] = Table 15-3, carboxy component 100 mM, amine component 150 mM
# [12] = L-amino acid methyl ester hydrochloride 100 mM, L-amino acid 150 mM
# [13] = Table 16, oligopeptide production, carboxy component 100 mM, amine component 150 mM
# [14] = L-amino acid ester 100 mM, amino acid or peptide amine component 150 mM
# [15] = 100 mM L-alanine methyl ester hydrochloride, L-amino acid 150 mM
compound,measurement,setting,value
CN[C@@H](C)C(=O)N[C@@H](Cc1ccccc1)C(=O)O [H-N-Me-Ala-Phe-OH],Produced peptide (mM),[1]; [4],tr
NCCCC[C@H](N)C(=O)N[C@@H](CCC(N)=O)C(=O)O [L-Lys-L-Gln] (H-Lys-Gln-OH),Produced peptide (mM),[1]; [5],+
NC(=O)CC[C@H](NC(=O)CC[C@H](N)C(=O)O)C(=O)O [γ-L-Glu-L-Gln],Produced peptide (mM),[1]; [5],+
NC(=O)CCC(NC(=O)C(N)Cc1c[nH]c2ccccc12)C(=O)O [L-Trp-L-Gln] (H-Trp-Gln-OH; configuration not given here),Produced peptide (mM),[1]; [5],+
C[C@H](NC(=O)CCN)C(=O)O [β-Ala-L-α-Ala],Produced peptide (mM),"[1]; β-amino acid ester as carboxy component or β-amino acid as amine component, 100 mM / 150 mM, pH 9.0, 25° C., 3 hours",tr
NC(=O)CC[C@H](NC(=O)[C@@H](N)Cc1cnc[nH]1)C(=O)O [L-His-L-Gln] (H-His-Gln-OH),Produced peptide (mM),[1]; [5],+
CC(C)(C)OC[C@H](N)C(=O)N[C@@H](CCC(N)=O)C(=O)O [H-Ser(tBu)-Gln-OH] (H-Ser(tBu)-Gln-OH),Produced peptide (mM),"[1]; carboxy component 100 mM, amine component 150 mM, 0.1 unit enzyme, 25° C., reaction time 2 hr",tr
NC(=O)CC[C@H](NC(=O)[C@@H](N)CS)C(=O)O [L-CySH-L-Gln] (H-Cys-Gln-OH),Produced peptide (mM),[1]; [5],+
NC(=O)CC[C@H](NC(=O)C[C@H](N)C(=O)O)C(=O)O [β-L-Asp-L-Gln],Produced peptide (mM),[1]; [5],tr
C[C@@H](N)C(=O)N[C@H](CCC(N)=O)C(=O)O [D-Ala-D-Gln] (H-[dA]-[dQ]-OH),Produced peptide (mM),"[1]; L or D amino acid methyl ester hydrochloride 100 mM, L or D amino acid 150 mM, pH 9.0, 25° C., 3 hours",tr
CC(C)(C)[C@H](N)C(=O)N[C@@H](CCC(N)=O)C(=O)O [H-t-Leu-H-Gln-OH] (H-[Tle]-Gln-OH),Produced peptide (mM),[1]; [4],tr
NC(=O)CC[C@H](NC(=O)[C@@H](N)Cc1ccc(F)cc1)C(=O)O [H-p-F-Phe-H-Gln-OH],Produced peptide (mM),[1]; [4],tr
NC(=O)CC[C@H](NC(=O)[C@@H](N)Cc1ccc(Cl)cc1)C(=O)O [H-Cl-F-Phe-H-Gln-OH],Produced peptide (mM),"[1]; carboxy component 25 mM, amine component 50 mM, 0.1 unit enzyme, 25° C., reaction time 3 hr",tr
NC(=O)CC[C@H](NC(=O)[C@@H](N)CC(N)=O)C(=O)O [L-Asn-L-Gln] (H-Asn-Gln-OH),Produced peptide (mM),[1]; [5],+
NC(=O)CC[C@H](NC(=O)[C@@H](N)Cc1ccc(O)cc1)C(=O)O [L-Tyr-L-Gln] (H-Tyr-Gln-OH),Produced peptide,[2]; [6],0.6 mM
same,Produced peptide,[3]; [7],3.4 mM
NC(=O)CC[C@H](NC(=O)[C@@H](N)CCC(=O)O)C(=O)O [α-L-Glu-L-Gln] (H-Glu-Gln-OH),Produced peptide (mM),[1]; [5],+
C[C@@H](N)C(=O)N[C@H](CO)C(=O)O [D-Ala-D-Ser] (H-[dA]-[dS]-OH),Produced peptide,[2]; [8],5.5 mM
same,Produced peptide,"[3]; L or D amino acid methyl ester hydrochloride 100 mM, L or D amino acid 150 mM",0.2 mM
CNC(=O)CN [Gly-methylamine],Produced peptide,[2]; [9],1.0 mM
same,Produced peptide,[3]; [10],1.1 mM
NC(N)=NCCC[C@H](N)C(=O)N[C@@H](CO)C(=O)O [L-Arg-L-Ser] (H-Arg-Ser-OH),Produced peptide,[2]; [11],2.2 mM
same,Produced peptide,[3]; [12],3.6 mM
L-Thr-Gly-Gly,Produced peptide,[2]; [13],8.4 mM
same,Produced peptide,[3]; [14],83.0 mM
CC(C)[C@H](N)C(=O)N[C@@H](CCC(N)=O)C(=O)O [L-Val-L-Gln] (H-Val-Gln-OH),Produced peptide,[2]; [6],8.2 mM
same,Produced peptide,[3]; [7],15.4 mM
C[C@H](N)C(=O)N[C@@H](C)C(=O)O [L-Ala-L-Ala] (H-Ala-Ala-OH),Produced peptide,[2]; [8],13.1 mM
same,Produced peptide,[2]; [13],25.6 mM
same,Produced peptide,[3]; [15],25.4 mM
same,Produced peptide,[3]; [14],28.7 mM
NC(=O)CC[C@H](NC(=O)[C@@H](N)Cc1ccc2ccccc2c1)C(=O)O [H-2-Nal-H-Gln-OH] (H-[2Nal]-Gln-OH),Produced peptide (mM),"[1]; carboxy component 40 mM, amine component 40 mM, 0.1 unit enzyme, 25° C., reaction time 3 hr",tr
C[C@H](N)C(=O)NCC(=O)O [L-Ala-Gly] (H-Ala-Gly-OH),Produced peptide,[2]; [8],11.1 mM
same,Produced peptide,[3]; [15],13.7 mM
C[C@H](N)C(=O)N[C@@H](CCCCN)C(=O)O [L-Ala-L-Lys] (H-Ala-Lys-OH),Produced peptide,[2]; [8],71.2 mM
same,Produced peptide,[3]; [15],71.8 mM
NC(N)=NCCC[C@H](N)C(=O)N[C@@H](Cc1ccccc1)C(=O)O [L-Arg-L-Phe],Produced peptide (mM),[2]; [11],tr
same,Produced peptide,[3]; [12],1.9 mM
CC(C)C[C@H](N)C(=O)N[C@@H](CCC(N)=O)C(=O)O [L-Leu-L-Gln] (H-Leu-Gln-OH),Produced peptide (mM),[1]; [5],+
NC(=O)CC[C@H](NC(=O)[C@@H](N)Cc1ccccc1)C(=O)O [L-Phe-L-Gln],Produced peptide,[2]; [6],0.8 mM
same,Produced peptide,"[3]; L-amino acid amide hydrochloride 100 mM as carboxy component, L-amino acid 150 mM",0.2 mM
same,Produced peptide,[3]; [7],0.9 mM
CC[C@H](C)[C@H](N)C(=O)N[C@@H](CO)C(=O)O [L-Ile-L-Ser] (H-Ile-Ser-OH),Produced peptide,[2]; [11],17.3 mM
same,Produced peptide,[3]; [12],17.2 mM
Gly-L-Ala-L-Tyr,Produced peptide,[2]; [13],0.6 mM
same,Produced peptide,[3]; [14],1.7 mM
NCC(=O)N[C@@H](CCCN=C(N)N)C(=O)O [Gly-L-Arg] (H-Gly-Arg-OH),Produced peptide,[2]; [11],17.9 mM
same,Produced peptide,[3]; [12],25.5 mM
NCC(=O)N[C@@H](Cc1ccccc1)C(=O)O [Gly-L-Phe] (H-Gly-Phe-OH),Produced peptide,[2]; [11],20.0 mM
same,Produced peptide,[3]; [12],44.0 mM
same,Produced peptide,"[3]; oligopeptide production, amount of enzyme 0.1 units",17.3 mM
C[C@H](N)C(=O)N[C@@H](CC(N)=O)C(=O)O [L-Ala-L-Asn] (H-Ala-Asn-OH),Produced peptide,[2]; [8],52.3 mM
same,Produced peptide,[3]; [15],65.5 mM
CNC(=O)C(C)N [L-Ala-methylamine],Produced peptide,[2]; [9],0.6 mM
same,Produced peptide,[3]; [10],0.3 mM
CSCC[C@H](NC(=O)[C@@H](N)[C@@H](C)O)C(=O)O [L-Thr-L-Met] (H-Thr-Met-OH),Produced peptide,[2]; [11],28.9 mM
same,Produced peptide,[3]; [12],38.6 mM
C[C@@H](O)[C@H](N)C(=O)NCC(=O)O [L-Thr-Gly] (H-Thr-Gly-OH),Produced peptide,[2]; [11],0.4 mM
same,Produced peptide,[3]; [12],9.4 mM
CC(C)[C@H](N)C(=O)N[C@@H](Cc1ccccc1)C(=O)O [L-Val-L-Phe] (H-Val-Phe-OH),Produced peptide,[2]; [11],1.0 mM
same,Produced peptide,[3]; [12],6.1 mM
